Test results as given in patent US8563545B2, “Compound useful for the treatment of degenerative and inflammatory diseases” (Galapagos NV, priority 2009, dated 2013).
Values joined by “and” are separate entries in the source; they are usually repeats but may differ in a detail not shown here. Equal entries are not always repeated. Where two headings read alike, the source gives them in different places.

Columns and labels:
[1] = test system: TNF release in vivo; experiment: Septic shock model (LPS-induced TNF release); set-up: species or system mouse; conditions: BALB/cJ mice, 30 mg/kg, po, LPS 15 μg/kg ip
Procedure: Injection of lipopolysaccharide (LPS) induces a rapid release of soluble tumour necrosis factor (TNF-alpha) into the periphery. This model was used to analyse prospective blockers of TNF release in vivo. Six BALB/cJ female mice (20 g) per group were treated at the intended dosing once, po. Thirty minutes later, LPS (15 μg/kg; E. Coli serotype 0111:B4) was injected ip. Ninety minutes later, mice were euthanized and blood was collected. Circulating TNF alpha levels were determined using commercially available ELISA kits. Dexamethasone ([…]) was used as a reference anti-inflammatory compound. Selected compounds were tested at one or multiple doses, e.g. 3 and/or 10 and/or 30 mg/kg, po.

[2] = Microsomal stability, rat; format: in vitro ADME; conditions: rat liver microsomes, 3 μM compound
Procedure: A 10 mM stock solution of compound in DMSO was diluted 1000 fold in a 182 mM phosphate buffer pH7.4 in a 96 deep well plate (Greiner, Cat no. 780285) and pre-incubated at 37° C. 40 μL of deionised water was added to a well of a polypropylene Matrix 2D barcode labelled storage tube (Thermo Scientific) and pre-incubated at 37° C.
A Glucose-6-phophate-dehydrogenase (G6PDH) working stock solution was prepared in 182 mM phosphate buffer pH7.4 and placed on ice before use. A co-factor containing MgCl2, glucose-6-phosphate and NADP+ was prepared in deionised water and placed on ice before use.
A final working solution containing liver microsomes (Xenotech) of a species of interest (human, mouse, rat, dog), previously described G6PDH and co-factors was prepared and this mix was incubated for no longer than 20 minutes at room temperature.
30 μL of the pre-heated compound dilution was added to 40 μL of pre-heated water in the Matrix tubes and 30 μL, of the microsomal mix was added. Final reaction concentrations were 3 μM compound, 1 mg microsomes, 0.4 U/mL GDPDH, 3.3 mM MgCl2, 3.3 mM glucose-6-phosphate and 1.3 mM NADP+.
To measure percentage remaining of compound at time zero MeOH or ACN was added (1:1) to the well before adding the microsomal mix. The plates were sealed with Matrix Sepra Seals™ (Matrix, Cat. No. 4464) and shaken for a few seconds ensure complete mixing of all components.
The samples which were not stopped are incubated at 37° C., 300 rpm and after 1 hr of incubation the reaction was stopped with MeOH or ACN (1:1).
After stopping the reaction the samples were mixed and placed on ice for 30 min to precipitate the proteins. The plates were then centrifuged 30 min at 1200 rcf at 4° C. and the supernatant was transferred to a 96 v-bottom PP plate (Greiner, 651201) for analysis on LCMS.
These plates were sealed with sealing mats (MA96RD-04S) of www.kinesis.co.uk and samples were measured at room temperature on LCMS (ZQ 1525 from Waters) under optimized conditions using Quanoptimize to determine the appropriate mass of the parent molecule.
The samples were analyzed on LCMS with a flow rate of 1 mL/min. Solvent A was 15 mM ammonia and solvent B was methanol or acetonitrile, depending on the stop solution used. The samples were run under positive ion spray on an XBridge C18 […] (2.1×30 mm) column, from Waters.
Peak area from the parent compound at time 0 was considered to be 100% remaining. The percentage remaining after 1 hr incubation was calculated from time 0 and was calculated as the percentage remaining. The solubility of the compound in the final test concentration in buffer is inspected by microscope and results are reported.
The data on microsomal stability are expressed as a percentage of the total amount of compound remaining after 60 min.

[3] = Pharmacokinetic study in rodents; format: in vivo, rat; conditions: for F: PO 5 mg/kg vs IV 1 mg/kg; for Cmax: read-out: C0 or Cmax; for AUC: read-out: AUC (0-z); for Vd: read-out: Vss; for AUC(0-t): read-out: AUC (0-24 h)
Procedure: Sprague-Dawley rats (male, 5-6 weeks old) were obtained from Janvier (France). Rats were acclimatized for at least 7 days before treatment and were kept on a 12 hr light/dark cycle (0700-1900). Temperature was maintained at approximately 22° C., and food and water were provided ad libitum. […] After the surgery, rats were housed individually. Rats were deprived of food for at least 16 hours before oral dosing and 6 hours after. Water was provided ad libitum.
Test compounds were orally dosed as a single esophageal gavage at 5 mg/kg under a dosing volume of 5 ml/kg and intravenously dosed as a bolus via the caudal vein at 1 mg/kg under a dosing volume of 5 mL/kg. Each group consisted of 3 rats. […] For compound 11, blood samples were collected at the retro-orbital sinus with lithium heparin as anti-coagulant at the following time points 0.25, 1, 3 and 6 hrs (oral route). Whole blood samples were centrifuged at 5000 rpm for 10 min and the resulting plasma samples were stored at −20° C. pending analysis.
Plasma concentrations of each test compound were determined by an LC-MS/MS method in which the mass spectrometer was operated in positive electrospray mode.
Pharmacokinetic parameters were calculated using Winnonlin® (Pharsight®, United States).

[4] = biological target: JAK2 (Homo sapiens (Human), UniProt O60674); experiment: JAK2 inhibition assay; format: biochemical
Sequence of JAK2 (O60674 808-1132): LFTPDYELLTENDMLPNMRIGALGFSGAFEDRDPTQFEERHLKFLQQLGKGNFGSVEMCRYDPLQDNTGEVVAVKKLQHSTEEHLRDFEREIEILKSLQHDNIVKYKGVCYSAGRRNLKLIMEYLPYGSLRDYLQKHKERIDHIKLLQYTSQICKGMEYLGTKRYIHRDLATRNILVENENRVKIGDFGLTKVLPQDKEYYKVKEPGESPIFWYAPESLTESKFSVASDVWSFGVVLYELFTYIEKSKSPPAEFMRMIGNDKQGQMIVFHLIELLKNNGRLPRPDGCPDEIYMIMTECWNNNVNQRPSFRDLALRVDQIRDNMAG
Procedure: After 90 min at 30° C., reactions were stopped by adding of 25 μL/well of 150 mM phosphoric acid. […] Plates were washed 6 times with 300 μL per well of a 75 mM phosphoric acid solution and the bottom of the plates was sealed. 40 μL/well of Microscint-20 was added, the top of the plates was sealed and readout was performed using the Topcount (Perkin Elmer). Kinase activity was calculated by subtracting counts per minute (cpm) obtained in the presence of a positive control inhibitor (10 μM staurosporine) from cpm obtained in the presence of vehicle. The ability of a test compound to inhibit this activity was determined as:
Percentage inhibition=((cpm determined for sample with test compound present−cpm determined for sample with positive control inhibitor)divided by(cpm determined in the presence of vehicle−cpm determined for sample with positive control inhibitor))*100.
Dose dilution series were prepared for the compounds enabling the testing of dose-response effects in the JAK2 assay and the calculation of the IC50 for each compound.

[5] = male, Sprague-Dawley, rat, plasma, po, 5 mg/kg
[6] = male, plasma, Sprague-Dawley rat, IV 1 mg/kg
[7] = male, plasma, Sprague-Dawley rat, IV 1 mg/kg (C0)
[8] = male, plasma, Sprague-Dawley rat, PO 5 mg/kg

percentage of compound remaining after 60 min, Rat [2] [%]	F ([3]; Sprague-Dawley rat) [%]	Cmax [3, 5] [ng/mL]	clearance [3, 6] [mL/min/kg]	Cmax [3, 7] [ng/mL]	AUC [3, 6] [ng·h/mL]	Vd [3, 6] [L/kg]	Tmax [3, 8] [min]	AUC(0-t) [3, 8] [ng·h/mL]	AUC [3, 8] [ng·h/mL]	IC50 [4]	Cl ([3]; Sprague-Dawley rat, IV 1 mg/kg)	AUC(0-t) [3, 6] [ng·h/mL]	SMILES	activity in septic shock model (circulating TNF alpha) [1]
65.6	45	310	22.5	1410	722	1.76	132	1680	1430				O=C(Nc1nc2cccc(-c3ccc(CN4CCS(=O)(=O)CC4)cc3)n2n1)C1CC1 [Compound 1, Cyclopropanecarboxylic acid {5-[4-(1,1-dioxo-1-thiomorpholin-4-ylmethyl)-phenyl]-[1,2,4]triazolo [1,5-a]pyridin-2-yl}-amide]	active
38	62	1320		863	470	1.46	19.8	1460	1440	38.7 nM and 152 nM and 185 nM	2.12	474	O=C(Nc1nc2cccc(-c3ccc(CN4CCOCC4)cc3)n2n1)C1CC1 [Compound 2, N-(5-(4-(morpholinomethyl)phenyl)-[1,2,4]triazolo[1,5-a]pyridin-2-yl)cyclopropanecarboxamide]	active
89										65.4 nM			O=C(Nc1nc2cccc(-c3ccc(C(=O)N4CCS(=O)(=O)CC4)cc3)n2n1)C1CC1 [Compound 10, Cyclopropanecarboxylic acid {5-[4-(1,1-dioxo-1-thiomorpholine-4-carbonyl)-phenyl]-[1,2,4]triazolo [1,5-a]pyridin-2-yl}-amide]	active
26		547					15		690	15.5 nM			O=C(Nc1nc2cccc(-c3ccc(CN4CCC(F)(F)CC4)cc3)n2n1)C1CC1 [Compound 11, Cyclopropanecarboxylic acid {5-[4-(4,4-difluoro-piperidin-1-ylmethyl)-phenyl]-[1,2,4]triazolo [1,5-a]pyridin-2-yl}-amide]	
